Assay results as given in ChEMBL document CHEMBL3507680, “University of Dundee, Gates Library screen for HepG2 cell viability”.

Experiment: Human HepG2 cell viability assay in 384 well format
Format: toxicity, cell-based
Parameters: dose 125 nL, time 70.5 hour; concentration not given beside the values
Details: HepG2 cells, read-out: Inhibition

Structure (SMILES)	cytotoxicity at 70.5 h [%]
CC(=O)N1CCC(NC(=O)N2CCN(c3cnccn3)CC2)CC1	1.14
COc1nc(C)ccc1CNC(=O)NC(C)(C)c1ncc(C)s1	-5.61
Cc1ccc(C(C(=O)O)N2CCCN(Cc3ccccn3)CC2)c(F)c1 (configuration not stated)	-4.69
Cc1ccc2c(c1)C(=O)NCC1(CCN(C(=O)c3ccccn3)CC1)O2	-7.17
COc1cc(CNCCC(N)=O)c2c(c1)CC(C)O2 (configuration not stated)	-0.966
Cn1ccnc1CN1C[C@@H]2[C@@H](C1)OCC(=O)N2CC1CCCC1	-21.4
CCCN1CCC(NC(=O)c2csc(C)c2C)CC1	-7.88
CCN(Cc1nc(-c2ccco2)no1)Cc1cccc2c1OCO2	-3.24
Cc1ccnc(C2COCCN2C)n1 (configuration not stated)	-3.5
CC(=O)c1ccc(CNC(=O)c2cc(C#N)cn2C)nc1C	-4.66
O=c1[nH]c(-c2ccccn2)nc2c1CCN(Cc1cccc(O)c1)C2	-4.95
COCCN(Cc1ccc(F)cc1Cl)C(=O)c1cccc[n+]1[O-]	-0.551
CN1C[C@@H]2COC[C@]2(C(=O)NCCc2cccs2)C1	-5.55
COCCN1CCC1c1cc(N)nc(C)n1 (configuration not stated)	-2.65
CCc1nnsc1C(=O)N1CCN(CC(O)C(C)(C)C)CC1 (configuration not stated)	-10.2
Oc1cc(-c2ccccn2)nc(C2CCN(Cc3ccncc3)CC2)n1	16.5
Cc1nn(C)c2c(=O)n(CC(=O)NC3CCCCC3)ccc12	-1.28
Cc1c(C2c3nc[nH]c3CCN2CCOCc2ccccc2)cnn1C (configuration not stated)	-10.4
COc1ccccc1[C@@H]1CN(Cc2ccncc2)C[C@H]1C(=O)O	9.71

Structure (SMILES)	cytotoxicity at 70.5 h [%]
O[C@@H]1C[C@@H](c2nc(Cc3ccccc3)no2)N(CC2CC2)C1	2.65
Cc1ccc(CN2CC[C@H]3[C@H]2CCN3S(=O)(=O)C2CC2)s1	-5.12
COCCn1c(-c2cccc(OC)c2)cnc1NC(=O)NCCC(C)C	-12.5
CCCC(=O)NS(=O)(=O)c1ccc(C#N)c(C(F)(F)F)c1	1.39
CCc1c(C)nc2cc(C3CCN(CCc4ccccc4)C3)nn2c1O (configuration not stated)	-0.223
CC(C)(Oc1ccc(C(N)=O)cc1)C(=O)N(CCC#N)CC1CCCO1 (configuration not stated)	6.27
Cc1cc(C)c(CNC(=O)c2ccc3c(c2)CCC3)c(=O)[nH]1	4.13
CCc1nccn1C1CCCN(C(=O)c2csc(COC)n2)C1 (configuration not stated)	-17.8
CN(Cc1ccccc1F)C(=O)CS(=O)(=O)Cc1ccc(Cl)c(Cl)c1	-19
CCn1cc(CN2CCCN(C(=O)CCCn3cncn3)CC2)cn1	1.08
CCCn1ccnc1CN1CCC(Oc2cccc(F)c2)(C(=O)O)CC1	-11
CC(C)(O)CCc1cccc(C(=O)NCCC2CCOC2)c1 (configuration not stated)	-0.764
CS(=O)(=O)CCNC(=O)C1(c2cccc(Cl)c2)CCCCC1	17.7
CC(=O)Nc1cc(F)c(S(=O)(=O)N(C)CC2CCC2)c(F)c1	-0.0857
Cc1ccc(CN(C)C)cc1NC(=O)C1CC1	-9.96
COc1ccc(CNc2nc(C3CC3)no2)cc1OC	-1.13
COCCOc1ccc(CNCC2CNc3cc(C)nn3C2)cn1 (configuration not stated)	-4.87
Cc1cc(C)n(CC2CCCN2CC(=O)N(C)Cc2cnn(C)c2)n1 (configuration not stated)	-9.95
Cn1cc(Br)c(C(=O)NCCn2cc(Br)cn2)n1	8.47

Structure (SMILES)	cytotoxicity at 70.5 h [%]
Cc1cnn(-c2ccc(C(=O)N3CCN(C)CC3C)cc2)c1 (configuration not stated)	-3.9
OC1(CN2CCc3nnc(Cc4cccnc4)n3CC2)CCCNC1 (configuration not stated)	-4.53
CC(C)NC(=O)COc1ccc(-c2nc(C(C)C)no2)cc1	-19.4
Cc1nc(N2CCCC2)nc2c1CCN(Cc1ccsc1)CC2	6.56
CC(=O)Nc1nc(C2CCN(C(=O)c3ccncc3)CC2)cs1	24.9
O=C(c1ccncc1)N1CCN(C(=O)c2coc3ccccc23)CC1	-11
O=C(CCCNC(=O)c1cnccn1)Nc1ncc[nH]1	-27.2
COc1ccc(C(=O)N2CCOc3ccncc32)cc1	-1.92
Cc1c(Br)cnn1CCC(=O)N(C)Cc1c(Cl)cnn1C	30.7
CC(C)n1ccnc1C1CCCN(c2ccnc3ccccc23)C1 (configuration not stated)	-0.236
CCN1CCCC(NC(=O)c2ccc(C)[nH]c2=O)C1 (configuration not stated)	-8.86
Cc1ccc(S(=O)(=O)N2C[C@H]3C[C@H](NC(=O)c4ccn(C)n4)[C@H]3C2)cc1	1.44
Cc1ccccc1C(=O)NC1CCN(c2cnn(C)c2)C1=O (configuration not stated)	-4.47
CCn1nc2c(cc1=O)CN(Cc1coc(-c3ccccc3)n1)CC2	-3.27
COCCc1noc(CN(C)c2nc(C)nc(C)c2C)n1	25.3
COCCCC1CCN([C@@H]2c3ccccc3C3(CCNCC3)[C@H]2O)CC1	-1.24
CC(C)c1nccc(CN2CCC(O)(CN3CCCCC3)C2)n1 (configuration not stated)	-4.46
Cc1cnc(-c2nc(O)c3c(n2)CN(C(=O)C2CC2)CC3)cn1	-4.33
CCOCC(=O)NCCn1ccc(-c2ccccn2)n1	-4.11
